From patent EP0466038A1, “Water-dispersible polyene antifungal complexes” (priority 1990, dated 1992)

Assay: Serum concentration of amphotericin B in rabbits after rectal administration of suppositories (HPLC)
Conditions: rabbit, in vivo, 10 mg/kg
Experimental: The base Witepsol H-15 was melted at 45° C in a temperature-controlled bath. Equal portions of amphotericin B and dipotassium glycyrrhizinate were added and the mixture was quickly poured into suppository molds and allowed to solidify at room temperature. The target potency was 20 mg amphotericin B/g suppository.
This procedure was repeated with ratios of 1:4 and 1:9 w/w amphotericin B:dispotassium glycyrrhizinate.
These suppositories were tested on white male rabbits weighing from 2.6 to 3.2 kg that received water freely but otherwise fasted for 24 hours prior to administration. Amphotericin B was dosed in 10 mg (activity)/kg and positioned about 2 cm into the rectum. Blood samples of about 1.5 ml were collected from an ear vein of each rabbit at appropriate intervals and evaluated according to procedures in Nilsson-Ehle et al., "Quantitation of amphotericin B with use of High-Pressure Liquid Chromatography," J. Infectious Diseases, Vol. 135, No. 3 (1977).

## C[C@@H]1[C@H](O)[C@@H](C)/C=C/C=C/C=C/C=C/C=C/C=C/C=C/[C@H](O[C@@H]2O[C@H](C)[C@@H](O)[C@H](N)[C@@H]2O)C[C@@H]2O[C@](O)(C[C@@H](O)C[C@@H](O)[C@H](O)CC[C@@H](O)C[C@@H](O)CC(=O)O[C@H]1C)C[C@H](O)[C@H]2C(=O)O [Amph., amphotericin B]
  concentration at 1 h: 1 ng/mL
  concentration at 3 h: 2.3 ng/mL
  concentration at 5 h: 1.5 ng/mL
  concentration at 7 h: 1 ng/mL
  concentration at 9 h: 3.3 ng/mL
  concentration at 11 h: 2.7 ng/mL
  concentration at 24 h: 1.3 ng/mL
